Measurements taken from patent US20060051436A1, “Composition for controlling excessive calorie intake-induced disorder, food product for controlling excessive calorie intake-induced disorder, skin preparation for external use for controlling excessive calorie intake-induced disorder, and controlling agent for excessive calorie intake-induced …” (Towa Corporation Kabushiki Kaisha, priority 2004, published 2006).
Marks after values point to notes of the source that are not given here.

What was measured:
[1] = test system: Otsuka Long-Evans Tokushima Fatty (OLETF) rats; test: Serum and lipoprotein fraction cholesterol, phospholipid, triglyceride in OLETF rats; assay type: in vivo, rat; details: end of six-week experiment, M±SE
Procedure: Six week after the initiation of the experiment, without prior abstinence from feed, each rat was anesthetized by administering approximately 50 mg/kg of pentobarbital sodium (product of Dainippon Pharmaceutical Co., Ltd.) into the abdominal cavity to remove all of its blood via the abdominal aorta with an injection syringe. This operation was performed during the period from 10:00 am to 12:00 am. The blood obtained by the operation was set aside for 1 hour at room temperature and subsequently at 4° C. for a period in the range of 1 to 2 hours. Thereafter, blood serum was separated by means of centrifugation at 2500 rpm at 4° C. for 10 minutes. Fractions of various lipoproteins were separated from the blood serum obtained at the time of whole blood extraction. […] Therefore, it is not possible with step-wise density gradient ultracentrifugation employed for this experiment to exclusively separate native LDL, and the LDL fraction separated in this stage contains HDL1 that existed together with LDL. The cholesterol, phospholipid, and triglyceride contents in the serum and each lipoprotein fraction were enzymatically measured with commercial kits (Cholesterol E-Test Wako, Phospholipid C-Test Wako, and Triglyceride E-Test Wako; products of Wako Pure Chemical Industries, Ltd.), respectively.

[2] = test system: Otsuka Long-Evans Tokushima Fatty (OLETF) rats; test: Serum apolipoprotein contents in OLETF rats; assay type: in vivo, rat; details: M±SE
Procedure: The respective contents of various apolipoproteins, i.e. apoA-I, apoB, and apoE, as well as the respective apoE contents in the LDL and HDL fractions, were determined by the rocket immunoelectrophoresis method described in “Age-related changes in serum concentrations of apolipoprotein A-I, E, and A-IV in SHRSP” by Hiroshi Ogawa and 4 other members (G.B., Journal of Hypertension, vol. 4, p 429-453, 1986). The aforementioned immunoelectrophoresis method is in accordance with the Laurell method and adjustment of a part of the method presented by C. B. Laurell in “Quantitative estimation of proteins by electrophoresis in agarose-gel containing antibodies” (USA, Analytical Biochemistry, vol. 15, p 42-52, 1966). The antibodies used for this measurement were specific antibodies obtained from rabbits by using antigens that were various apolipoproteins separated and refined from rat serum. Furthermore, apoB/apoA-I was calculated from the results of measurement of apoA-I and apoB.

[3] = test system: cholesterol 7α-hydroxylase; test: 7α-hydroxylase activity in liver microsome fraction of OLETF rats; assay type: in vivo, rat; details: M±SE
Procedure: Purified liver microsome fraction was produced according to a normal method, and the cholesterol in the liver microsome fraction was used as the substrate. The activity of cholesterol 7α-hydroxylase was determined by HPLC in accordance with the method described in “An improved method for assay of cholesterol 7α-hydroxylase activity” by Tadashi Ogishima and one other member (USA, Analytical Biochemistry, vol. 158, p 228-232, 1986). The results of measurement of 7α-hydroxylase activity are shown in terms of the amount of HCO (7α-hydroxy-4-cholesten-3-on) generated per 1 mg of protein content in one minute in the microsome fraction (pmol/min/mg of microsome protein).

[4] = test system: Otsuka Long-Evans Tokushima Fatty (OLETF) rats; test: Serum glucose, free fatty acids and insulin in OLETF rats; assay type: in vivo, rat; details: end of six-week experiment, M±SE
Procedure: Six week after the initiation of the experiment, without prior abstinence from feed, each rat was anesthetized by administering approximately 50 mg/kg of pentobarbital sodium (product of Dainippon Pharmaceutical Co., Ltd.) into the abdominal cavity to remove all of its blood via the abdominal aorta with an injection syringe. This operation was performed during the period from 10:00 am to 12:00 am. The blood obtained by the operation was set aside for 1 hour at room temperature and subsequently at 4° C. for a period in the range of 1 to 2 hours. Thereafter, blood serum was separated by means of centrifugation at 2500 rpm at 4° C. for 10 minutes. Furthermore, the glucose and free fatty acid content in he serum were enzymatically measured with commercial kits (Glucose CII-Test Wako and NEFA C-Test Wako; products of Wako Pure Chemical Industries, Ltd.), respectively. The serum insulin content was determined in accordance with the Sandwich ELISA (enzyme-linked immunosorbent assay) method using a Rat insulin ELISA kit (product of Shibayagi Co., Ltd.). Therefore, the insulin content is shown in terms of Immuno-reactive insulin (IRI; pg/ml).

[5] = Body weight and food intake of OLETF rats; assay type: in vivo, rat; details: M±SE
From the text: The rats that were the subjects of the experiment were divided into three groups: a Control group to be fed a control diet, a Hercampuri group to be fed a Hercampuri-enriched diet, and an Acarbose group to be fed an Acarbose-enriched diet. […] This control diet was purified animal feed containing casein as the source of protein. The Hercampuri-enriched diet fed to the rats in the Hercampuri group was produced by adding Hercampuri extract powder at a mixing ratio of 2% to the control diet. The Acarbose-enriched diet fed to the rats in the Acarbose group was produced by adding Acarbose (product of Bayer AG) at a mixing ratio of 0.2% to the control diet. For each experimental diet, the amount of the added subject ingredient was compensated for by adjusting the amount of corn starch. Male OLETF rats and LETO rats delivered from Tokushima Research Institute of Otsuka Pharmaceutical Co., Ltd. were used as the subject animals. Each one of these OLETF rats and LETO rats was born during the period of June 10th to June 13th in 2002. […] The rats had free access to feed (CE-2: product of Clea Japan, Inc.) and drinking water (tap water). […] During the experiment, the body weights and the amounts of food intake were measured every other day. […]

[6] = test system: Otsuka Long-Evans Tokushima Fatty (OLETF) rats; test: Liver weight ratio and liver lipid contents in OLETF rats; assay type: in vivo, rat; details: end of six-week experiment, M±SE
Procedure: Immediately after the extraction of all the blood, the liver was quickly removed from all the rats in each group, and the wet weight of each liver was measured. The liver weight ratio of each rat is shown in terms of the liver weight per unit of body weight (100 g) at the time of removal. Extraction of lipid from each liver was performed in accordance with the method described in “A simple method for the isolation and purification of total lipids from animal tissues” (Folch and two other members, Journal of Biological Chemistry, vol. 226, p 497-509, 1957). A part of the lower layer of the liquid liver extract (the chloroform-containing layer) was separated, and the chloroform contained therein was evaporated under nitrogen gas current. The liquid with the chloroform removed was used as a sample for measuring liver lipid contents. The cholesterol, phospholipid, and triglyceride contents in the liver were enzymatically measured with commercial kits (Cholesterol E-Test Wako, Phospholipid C-Test Wako, and Triglyceride E-Test Wako; products of Wako Pure Chemical Industries, Ltd.), respectively.

[7] = test system: streptozotocin (STZ)-induced diabetic rats; details: Planta Medica 1994, 1995; cited from earlier work

Structure (SMILES)	Serum Cholesterol [1]	Serum Phospholipid [1]	Serum Triglyceride [1]	ApoB/apoA-I (×100) ([2]; calculated from apoA-I and apoB)	Serum apoA-I ([2]; end of six-week experiment)	Serum apoB ([2]; end of six-week experiment)	Serum apoE ([2]; end of six-week experiment)	7α-hydroxylase [3]	Serum FFA [4]	Serum Glucose [4]	Serum IRI (immuno-reactive insulin) [4]	Food intake ([5]; average over six weeks)	Body weight ([5]; end of six-week experiment)	Liver Cholesterol [6]	Liver Phospholipid [6]	Liver Triglyceride [6]	Liver weight [6]	Blood sugar levels [7]
C[C@H]1O[C@H](O[C@H]2[C@H](O)[C@@H](O)[C@@H](O[C@H]3[C@H](O)[C@@H](O)C(O)O[C@@H]3CO)O[C@@H]2CO)[C@H](O)[C@@H](O)[C@@H]1N[C@H]1C=C(CO)[C@@H](O)[C@H](O)[C@H]1O (stereo partly drawn) [Acarbose]	150 ± 11^b mg/dL	178 ± 10^b mg/dL	55.6 ± 1.7^c mg/dL	3.15 ± 0.06^c	126 ± 4^a mg/dL	3.95 ± 0.14^b mg/dL	55.5 ± 2.7^b mg/dL	34.5 nmol/min/mg protein	751 ± 38^c μEq/L	193 ± 12^c mg/dL	665 ± 231^b pg/mL	12.9 ± 0.9^a g/rat/day	639 ± 14^b g	5.39 mg/wet g	32.9 mg/wet g	75.4 mg/wet g	3.40 g/100 g B.W.	–
COc1cc(O)c2c(=O)c3c(O)ccc(O)c3oc2c1 [Bellidifolin]	–	–	–	–	–	–	–	–	–	–	–	–	–	–	–	–	–	has a function of reducing blood sugar levels
